Values joined by “and” are separate entries in the source; they are usually repeats but may differ in a detail not shown here. Identical values can stand only once.
Tests used:
[1] = system: SETVI; test: Pre-emergence action at 320 g/ha against SETVI; assay type: in vivo, Setaria viridis; conditions: visual scoring after about 3 weeks vs untreated controls
Outline: (§1)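 Pre-emergence soil-surface spray: WP or EC formulation, aqueous, 0.5% additive, 600 l/ha water volume. Greenhouse growth about 3 weeks; visual percent effect relative to untreated pots.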

[2] = system: DIGSA; test: Post-emergence action against DIGSA, 1.28 kg/ha; assay type: in vivo, Digitaria sanguinalis; conditions: dosage 1280 g/ha, visual rating about 3 weeks after treatment vs untreated controls
Outline: (§2)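 Foliar application at the one-leaf stage: compound as WP or EC in water with 0.5% additive, sprayed at 600 L/ha. Plants are kept about 3 weeks in the greenhouse, then % herbicidal action is estimated visually (100% = death).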

[3] = system: MATIN; test: Pre-emergence action against MATIN, 1280 g/ha; assay type: in vivo, Tripleurospermum inodorum (Matricaria inodora); conditions: scored visually after about 3 weeks vs untreated controls (100% = plants have died)
Outline: (§3)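 Pre-emergence pot test: seeds in sandy loam, soil-covered, sprayed on soil surface (WP/EC, 0.5% additive, 600 L/ha water); greenhouse ~3 wk; visual % effect vs untreated, 0–100%.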

[4] = system: SETVI; test: Post-emergence action against SETVI, 1.28 kg/ha; assay type: in vivo, Setaria viridis; conditions: dosage 1280 g/ha, visual rating about 3 weeks after treatment vs untreated controls
Outline: as §2

[5] = system: PHBPU; test: Pre-emergence action at 320 g/ha against PHBPU; assay type: in vivo; conditions: visual scoring after about 3 weeks vs untreated controls
Text: b) Seeds of monocotyledonous and dicotyledonous weed plants and crop plants are placed in plastic or organic planting pots and covered with soil. The compounds of the invention, formulated in the form of wettable powders (WP) or as emulsion concentrates (EC), are then applied onto the surface of the covering soil as aqueous suspension or emulsion with addition of 0.5% additive at a water application rate of 600 l/ha (converted). After the treatment, the pots are placed in a greenhouse and kept under good growth conditions for the trial plants. After about 3 weeks, the effect of the preparations is scored visually in comparison with untreated controls as percentages. For example, 100% activity=the plants have died, 0% activity=like control plants. Tables 13 to 26 below show the effects of selected compounds of the general formula (I) on various harmful plants and at an application rate corresponding to 320 g/ha, which were obtained by the experimental procedure mentioned above.

[6] = system: POAAN; test: Post-emergence action against POAAN, 1.28 kg/ha; assay type: in vivo, Poa annua; conditions: dosage 1280 g/ha, visual rating about 3 weeks after treatment vs untreated controls
Outline: as §2

[7] = system: VERPE; test: Post-emergence action against VERPE, 1.28 kg/ha; assay type: in vivo, Veronica persica; conditions: dosage 1280 g/ha, visual rating about 3 weeks after treatment vs untreated controls (100% = plants died)
Outline: as §2

[8] = system: AMARE; test: Post-emergence action against AMARE, 1.28 kg/ha; assay type: in vivo, Amaranthus retroflexus; conditions: dosage 1280 g/ha, visual rating about 3 weeks after treatment vs untreated controls (100% = plants died)
Outline: as §2

[9] = system: VIOTR; test: Pre-emergence action at 320 g/ha against VIOTR; assay type: in vivo, Viola tricolor; conditions: dosage 320 g/ha
Outline: as §1

[10] = system: ALOMY; test: Pre-emergence action at 320 g/ha against ALOMY; assay type: in vivo, Alopecurus myosuroides; conditions: scored visually after about 3 weeks vs untreated controls (100% = plants have died)
Outline: as §1

[11] = system: ECHCG; test: Pre-emergence action against ECHCG, 1280 g/ha; assay type: in vivo, Echinochloa crus-galli; conditions: visual scoring after about 3 weeks vs untreated controls, 100% = plants have died, 0% = like control plants
Outline: as §3

[12] = system: ABUTH; test: Pre-emergence action against ABUTH, 1280 g/ha; assay type: in vivo, Abutilon theophrasti; conditions: scored visually after about 3 weeks vs untreated controls (100% = plants have died)
Outline: as §3

[13] = system: KCHSC; test: Post-emergence action against KCHSC, 1.28 kg/ha; assay type: in vivo, Bassia scoparia; conditions: dosage 1280 g/ha, visual rating about 3 weeks after treatment vs untreated controls (100% = plants died)
Outline: as §2

[14] = system: POAAN; test: Pre-emergence action against POAAN, 1280 g/ha; assay type: in vivo, Poa annua; conditions: visual scoring after about 3 weeks vs untreated controls, 100% = plants have died, 0% = like control plants
Outline: as §3

[15] = system: LOLRI; test: Pre-emergence action at 320 g/ha against LOLRI; assay type: in vivo, Lolium rigidum; conditions: visual scoring after about 3 weeks vs untreated controls
Outline: as §1

[16] = system: ABUTH; test: Post-emergence action against ABUTH, 1.28 kg/ha; assay type: in vivo, Abutilon theophrasti; conditions: dosage 1280 g/ha, visual rating about 3 weeks after treatment vs untreated controls (100% = plants died)
Outline: as §2

[17] = system: DIGSA; test: Pre-emergence action against DIGSA, 1280 g/ha; assay type: in vivo, Digitaria sanguinalis; conditions: visual scoring after about 3 weeks vs untreated controls, 100% = plants have died, 0% = like control plants
Outline: as §3

[18] = system: ECHGC; test: Pre-emergence action at 320 g/ha against ECHGC; assay type: in vivo, Echinochloa crus-galli; conditions: visual scoring after about 3 weeks vs untreated controls
Outline: as §1

[19] = system: AMARE; test: Pre-emergence action against AMARE, 1280 g/ha; assay type: in vivo, Amaranthus retroflexus; conditions: scored visually after about 3 weeks vs untreated controls (100% = plants have died)
Outline: as §3

[20] = system: POLCO; test: Pre-emergence action at 320 g/ha against POLCO; assay type: in vivo, Fallopia convolvulus (Polygonum convolvulus); conditions: visual scoring after about 3 weeks vs untreated controls
Outline: as §1

[21] = system: DIGSA; test: Pre-emergence action at 320 g/ha against DIGSA; assay type: in vivo, Digitaria sanguinalis; conditions: visual scoring after about 3 weeks vs untreated controls
Outline: as §1

[22] = system: AVEFA; test: Pre-emergence action at 320 g/ha against AVEFA; assay type: in vivo; conditions: visual scoring after about 3 weeks vs untreated controls
Outline: as §1

[23] = system: KCHSC; test: Pre-emergence action against KCHSC, 1280 g/ha; assay type: in vivo, Bassia scoparia; conditions: scored visually after about 3 weeks vs untreated controls (100% = plants have died)
Outline: as §3

[24] = system: MATIN; test: Post-emergence action against MATIN, 1.28 kg/ha; assay type: in vivo, Tripleurospermum inodorum (Matricaria inodora); conditions: dosage 1280 g/ha, visual rating about 3 weeks after treatment vs untreated controls (100% = plants died)
Outline: as §2

[25] = system: VERPE; test: Pre-emergence action against VERPE, 1280 g/ha; assay type: in vivo, Veronica persica; conditions: scored visually after about 3 weeks vs untreated controls (100% = plants have died)
Outline: as §3

[26] = system: MATIN; test: Pre-emergence action at 320 g/ha against MATIN; assay type: in vivo, Tripleurospermum inodorum (Matricaria inodora); conditions: visual scoring after about 3 weeks vs untreated controls
Outline: as §1

[27] = system: ALOMY; test: Post-emergence action against ALOMY, 1.28 kg/ha; assay type: in vivo, Alopecurus myosuroides; conditions: dosage 1280 g/ha, visual rating about 3 weeks after treatment vs untreated controls
Outline: as §2

[28] = system: STEME; test: Pre-emergence action against STEME, 1280 g/ha; assay type: in vivo, Stellaria media; conditions: scored visually after about 3 weeks vs untreated controls (100% = plants have died)
Outline: as §3

[29] = system: ALOMY; test: Pre-emergence action against ALOMY, 1280 g/ha; assay type: in vivo, Alopecurus myosuroides; conditions: visual scoring after about 3 weeks vs untreated controls, 100% = plants have died, 0% = like control plants
Outline: as §3

[30] = system: ECHCG; test: Post-emergence action against ECHCG, 1.28 kg/ha; assay type: in vivo, Echinochloa crus-galli; conditions: dosage 1280 g/ha, visual rating about 3 weeks after treatment vs untreated controls
Outline: as §2

[31] = system: LOLRI; test: Pre-emergence action against LOLRI, 1280 g/ha; assay type: in vivo, Lolium rigidum; conditions: visual scoring after about 3 weeks vs untreated controls, 100% = plants have died, 0% = like control plants
Outline: as §3

[32] = system: VERPE; test: Pre-emergence action at 320 g/ha against VERPE; assay type: in vivo, Veronica persica; conditions: visual scoring after about 3 weeks vs untreated controls
Outline: as §1

[33] = system: SETVI; test: Pre-emergence action against SETVI, 1280 g/ha; assay type: in vivo, Setaria viridis; conditions: visual scoring after about 3 weeks vs untreated controls, 100% = plants have died, 0% = like control plants
Outline: as §3

[34] = system: LOLRI; test: Post-emergence action against LOLRI, 1.28 kg/ha; assay type: in vivo, Lolium rigidum; conditions: dosage 1280 g/ha, visual rating about 3 weeks after treatment vs untreated controls
Outline: as §2

[35] = system: STEME; test: Post-emergence action against STEME, 1.28 kg/ha; assay type: in vivo, Stellaria media; conditions: dosage 1280 g/ha, visual rating about 3 weeks after treatment vs untreated controls (100% = plants died)
Outline: as §2

[36] = system: AMARE; test: Pre-emergence action at 320 g/ha against AMARE; assay type: in vivo, Amaranthus retroflexus; conditions: visual scoring after about 3 weeks vs untreated controls
Outline: as §1

Structure (SMILES) | Pre-emergence action against SETVI in % [1] [%] | Post-emergence action against DIGSA [2] [%] | Pre-emergence action against MATIN [3] [%] | Post-emergence action against SETVI [4] | Pre-emergence action against PHBPU in % [5] [%] | Post-emergence action against POAAN [6] [%] | Post-emergence action against VERPE [7] [%] | Post-emergence action against AMARE [8] | Pre-emergence action against VIOTR in % [9] [%] | Pre-emergence action at 320 g/ha against ALOMY in % [10] [%] | Pre-emergence action against ECHCG [11] [%] | Pre-emergence action against ABUTH [12] [%] | Pre-emergence action against POAAN [14] [%] | Pre-emergence action against LOLRI in % [15] [%] | Post-emergence action against ABUTH [16] [%] | Pre-emergence action against DIGSA [17] [%] | Pre-emergence action against ECHGC in % [18] | Pre-emergence action against AMARE [19] [%] | Pre-emergence action against POLCO in % [20] [%] | Pre-emergence action against DIGSA in % [21] [%] | further results
O=C(COc1nn(-c2ccccc2F)c(-c2ccc(F)nc2)c1Br)O[C@H]1CCOC1=O [VII-064] | 100 | 100 | 100 | 100% and 90% | 90 | 100 | 100 | 90% and 100% | 100 | 100 | 100 | 90 | 100 | 100 | 90 | 100 | 100% and 90% | 100 | 90 | 100 | Post-emergence action against KCHSC [13]: 90%; Pre-emergence action against AVEFA in % [22]: 90%; Pre-emergence action against KCHSC [23]: 100% and 90%; Post-emergence action against MATIN [24]: 100% and 90%; Pre-emergence action against VERPE [25]: 100%; Pre-emergence action against MATIN in % [26]: 100%; Post-emergence action against ALOMY [27]: 100%; Pre-emergence action against STEME [28]: 100%; Pre-emergence action against ALOMY [29]: 100%; Post-emergence action against ECHCG [30]: 100%; Pre-emergence action against LOLRI [31]: 100%; Pre-emergence action against VERPE in % [32]: 100%; Pre-emergence action against SETVI [33]: 100%; Post-emergence action against LOLRI [34]: 100% and 90%; Post-emergence action against STEME [35]: 100%; Pre-emergence action against AMARE in % [36]: 100%
N#CCCOC(=O)COc1nn(-c2ccccc2F)c(-c2ccc(F)nc2)c1Br [VII-110] | 100 | 100 | 100 | 90% | 90 | 100 | 100 | 90% | 100 | 100 | 100 | 90 | 100 | 100 | 90 | 100 | 100% | 100 | 100 | 100 | Pre-emergence action against AVEFA in % [22]: 80%; Pre-emergence action against KCHSC [23]: 90%; Post-emergence action against MATIN [24]: 100%; Pre-emergence action against VERPE [25]: 100%; Pre-emergence action against MATIN in % [26]: 100%; Post-emergence action against ALOMY [27]: 100%; Pre-emergence action against STEME [28]: 100%; Pre-emergence action against ALOMY [29]: 100%; Post-emergence action against ECHCG [30]: 100%; Pre-emergence action against LOLRI [31]: 100%; Pre-emergence action against VERPE in % [32]: 100%; Pre-emergence action against SETVI [33]: 100%; Post-emergence action against LOLRI [34]: 100%; Post-emergence action against STEME [35]: 100%; Pre-emergence action against AMARE in % [36]: 100%
CSCCOC(=O)COc1nn(-c2ccccc2F)c(-c2ccc(F)nc2)c1Br [VII-124] | 100 | 100 | 100 | 90% | 90 | 100 | 100 | 90% | 100 | 100 | 100 | 90 | 100 | 100 | 90 | 100 | 100% | 100 | 100 | 100 | Post-emergence action against KCHSC [13]: 90%; Pre-emergence action against AVEFA in % [22]: 90%; Pre-emergence action against KCHSC [23]: 90%; Post-emergence action against MATIN [24]: 100%; Pre-emergence action against VERPE [25]: 100%; Pre-emergence action against MATIN in % [26]: 100%; Post-emergence action against ALOMY [27]: 100%; Pre-emergence action against STEME [28]: 100%; Pre-emergence action against ALOMY [29]: 100%; Post-emergence action against ECHCG [30]: 100%; Pre-emergence action against LOLRI [31]: 100%; Pre-emergence action against VERPE in % [32]: 100%; Pre-emergence action against SETVI [33]: 100%; Post-emergence action against LOLRI [34]: 100%; Post-emergence action against STEME [35]: 100%; Pre-emergence action against AMARE in % [36]: 100%
